Literature values, collected in patent US12029723B2, “Compounds and forms of treatment for female sexual disorders” (GTO PHARMA, LLC., priority 2015, dated 2024).

Tests used:
[1] = test system: pre-menopausal women with SIAD related disorders
liver = conditions: a person taking 400 mg daily in herbal substitutes for weight loss

O=c1[nH]c2ccccc2n1CCN1CCN(c2cccc(C(F)(F)F)c2)CC1 [Flibanserin, 2H-benzimidazol-2-one, 1,3-dihydro-1-[2-[4-[3(tri-fluoromethyl)phenyl]-1-piperazinyl]ethyl]]
share of women with the benefit ([1]; 100 mg daily for a minimum of 28 days): 18%
effect on GPPD (vestibulodynia, dyspareunia) or FOD ([1]; in vivo): no therapeutic effect at all
median placebo-corrected increase in satisfying sexual events (SSEs) ([1]; median baseline about 2-3 SSEs per month, six month period): 0.5-1.0 SSEs per month
sedation or hypotension-related adverse events ([1]; vs 9.4% placebo): 28.6%

Epigallocatechin-3-gallate [EGCG]
liver injury (liver): acute but reversible liver failure
